Converted amounts (≈) assume the structure as drawn.
What was measured:
Assay in all cases: ≥ marks a high value that may be exact or a test limit, other limits are often not marked, values filed in µg/mL are converted to µM
[1] = test system: Staphylococcus aureus NCTC 10788
[2] = test system: Candida albicans NCPF 1467
[3] = test system: Escherichia coli NCTC 10418
[4] = test system: Staphylococcus aureus NCTC 12493
[5] = test system: Pseudomonas aeruginosa ATCC 27853
[6] = test system: Enterococcus faecalis NCTC 12697
[7] = test system: Salmonella typhimurium KCTC 1926
[8] = test system: Pseudomonas aeruginosa ATCC 15692
[9] = test system: Escherichia coli ATCC 25922
[10] = test system: Staphylococcus aureus USA 300
[11] = test system: Pseudomonas aeruginosa PAO1
[12] = test system: Klebsiella pneumoniae ATCC 13883
Escherichia coli K-12 = test system: Escherichia coli K-12
[13] = test system: Staphylococcus aureus ATCC 43300
[14] = test system: Candida albicans ATCC 90028
[15] = test system: Klebsiella pneumoniae ATCC 700603
[16] = test system: Cryptococcus neoformans ATCC 208821
[17] = test system: Acinetobacter baumannii ATCC 19606
[18] = test system: Enterococcus faecalis ATCC 29212
[19] = test system: Candida albicans ATCC 14053
[20] = test system: Staphylococcus aureus ATCC 29213
[21] = test system: Clavibacter michiganensis subsp. michiganensis DSM 46294
[22] = test system: Pseudomonas syringae pv. tomato DC3000
[23] = test system: Pseudomonas corrugata DSM 7228
[24] = test system: Pseudomonas syringae pv. syringae DSM 10604
[25] = test system: Pectobacterium carotovorum subsp. carotovorum DSM 30168
[26] = test system: Xanthomonas vesicatoria DSM 50861

**Q.** What does the source list for `CC[C@H](C)[C@H](NC(=O)[C@H](C)NC(=O)[C@H](Cc1cnc[nH]1)NC(=O)[C@@H]1CCCN1C(=O)[C@@H](NC(=O)[C@H](CC(C)C)NC(=O)[C@H](CO)NC(=O)[C@H](Cc1ccccc1)NC(=O)[C@H](CC(C)C)NC(=O)[C@@H](N)Cc1ccccc1)[C@@H](C)CC)C(=O)NCC(=O)NCC(=O)N[C@@H](CC(C)C)C(=O)N[C@H](C(=O)N[C@@H](CO)C(=O)N[C@@H](C)C(=O)N[C@@H](Cc1ccccc1)C(=O)N[C@@H](CCCCN)C(N)=O)[C@@H](C)CC` [FLFSLIPHAIGGLISAFK]?
**A.** MIC [1]: 20 µM (≈ 38.6 µg/mL); MIC [2]: ≥ 64 µM; MIC [3]: ≥ 150 µM

**Q.** How did the MIC [1] turn out when `CC[C@H](C)[C@H](NC(=O)CNC(=O)CNC(=O)[C@H](CC(C)C)NC(=O)[C@@H](N)Cc1ccccc1)C(=O)N[C@@H](CC(C)C)C(=O)N[C@@H](CC(N)=O)C(=O)N[C@H](C(=O)N[C@H](C(=O)N[C@H](C(=O)NCC(=O)N[C@@H](CC(C)C)C(=O)N[C@@H](CC(C)C)C(N)=O)[C@@H](C)O)[C@@H](C)CC)[C@@H](C)O` [FLGGILNTITGLL] was run?
**A.** The MIC was 30 µM (≈ 39.9 µg/mL).

**Q.** What about the MIC [2] of the same molecule?
**A.** Its MIC is no less than 200 µM.

**Q.** `CC[C@H](C)[C@H](NC(=O)[C@@H]1CCCN1C(=O)[C@H](CC(C)C)NC(=O)[C@@H](N)Cc1ccccc1)C(=O)N[C@H](C(=O)N[C@@H](C)C(=O)N[C@@H](CCCCN)C(=O)N[C@@H](CC(C)C)C(=O)N[C@@H](CC(C)C)C(=O)N[C@@H](CO)C(=O)NCC(=O)N[C@@H](CC(C)C)C(=O)N[C@@H](CC(C)C)C(=O)NCC(=O)N[C@@H](CCCN=C(N)N)C(=O)N[C@@H](CCCCN)C(=O)N[C@@H](CCCCN)C(=O)N[C@@H](CCCN=C(N)N)C(=O)N[C@@H](CCCN=C(N)N)C(=O)N[C@@H](CCC(N)=O)C(=O)N[C@@H](CCCN=C(N)N)C(=O)N[C@@H](CCCN=C(N)N)C(=O)N[C@@H](CCCN=C(N)N)C(N)=O)C(C)C` [FLPIVAKLLSGLLGRKKRRQRRR] was tested. Which MIC [1] did it give?
**A.** The MIC was 1 µM (≈ 2.76 µg/mL).

**Q.** What about the MIC [2] of the same molecule?
**A.** Its MIC is 1 µM (≈ 2.76 µg/mL).

**Q.** And the MIC [4]?
**A.** Its MIC is 2 µM (≈ 5.52 µg/mL).

**Q.** And the MIC [5]?
**A.** The MIC was 2 µM (≈ 5.52 µg/mL).

**Q.** What about the MIC [3] of the same molecule?
**A.** Its MIC is 2 µM (≈ 5.52 µg/mL).

**Q.** And the MIC [6]?
**A.** The MIC was 2 µM (≈ 5.52 µg/mL).

**Q.** With `CC[C@H](C)[C@H](NC(=O)CNC(=O)[C@H](Cc1cnc[nH]1)NC(=O)[C@@H](NC(=O)[C@@H](NC(=O)[C@H](CO)NC(=O)CNC(=O)[C@@H](NC(=O)[C@H](Cc1ccccc1)NC(=O)[C@H](CCCN=C(N)N)NC(=O)[C@H](CC(C)C)NC(=O)[C@@H](N)Cc1ccccc1)[C@@H](C)CC)C(C)C)[C@@H](C)CC)C(=O)NCC(=O)N[C@@H](Cc1cnc[nH]1)C(=O)N[C@@H](CC(C)C)C(=O)N[C@H](C(=O)N[C@@H](Cc1cnc[nH]1)C(=O)N[C@@H](Cc1cnc[nH]1)C(=O)N[C@H](C(=O)NCC(=O)N[C@H](C(=O)N[C@@H](C)C(=O)N[C@@H](CC(C)C)C(N)=O)C(C)C)[C@@H](C)CC)C(C)C` [FLRFIGSVIHGIGHLVHHIGVAL] as the molecule, how does the MIC [7] read?
**A.** Its MIC is no less than 64 µM.

**Q.** What about the MIC [8] of the same molecule?
**A.** The MIC was no less than 64 µM.

**Q.** `CC[C@H](C)[C@H](NC(=O)[C@H](CCCCN)NC(=O)[C@H](CCC(N)=O)NC(=O)[C@@H](NC(=O)[C@@H](NC(=O)[C@H](CCCN=C(N)N)NC(=O)[C@H](CCCCN)NC(=O)[C@H](Cc1ccccc1)NC(=O)CN)[C@@H](C)CC)C(C)C)C(=O)N[C@@H](CCCN=C(N)N)C(=O)N[C@@H](CC(=O)O)C(=O)N[C@@H](Cc1ccccc1)C(=O)N[C@@H](CC(C)C)C(=O)N[C@@H](CCCN=C(N)N)C(=O)N[C@@H](CC(N)=O)C(=O)N[C@@H](CC(C)C)C(=O)N[C@H](C(N)=O)C(C)C` [GFKRIVQKIRDFLRNLV] was tested. Which MIC [9] did it give?
**A.** Its MIC is 4.4 µM (≈ 9.25 µg/mL).

**Q.** What about the MIC [10] of the same molecule?
**A.** Its MIC is 2.2 µM (≈ 4.62 µg/mL).

**Q.** And the MIC [11]?
**A.** The MIC was 25 µM (≈ 52.5 µg/mL).

**Q.** And the MIC [12]?
**A.** The MIC was 3.1 µM (≈ 6.51 µg/mL).

**Q.** With `CC[C@H](C)[C@H](NC(=O)[C@H](C)NC(=O)[C@H](CCC(=O)O)NC(=O)[C@H](Cc1cnc[nH]1)NC(=O)[C@H](CC(C)C)NC(=O)CNC(=O)[C@H](CCC(N)=O)NC(=O)[C@H](Cc1ccccc1)NC(=O)[C@@H](NC(=O)[C@H](CCCCN)NC(=O)[C@H](CCCCN)NC(=O)[C@H](CC(C)C)NC(=O)[C@@H](NC(=O)[C@H](CC(N)=O)NC(=O)[C@H](CC(C)C)NC(=O)CN)[C@@H](C)O)C(C)C)C(=O)N[C@@H](CCCCN)C(=O)N[C@@H](CC(C)C)C(=O)N[C@H](C(=O)N[C@@H](CC(N)=O)C(=O)N[C@@H](CC(N)=O)C(=O)N[C@@H](Cc1cnc[nH]1)C(=O)N[C@H](C(=O)N[C@@H](CCC(N)=O)C(=O)O)C(C)C)[C@@H](C)CC` [GLNTLKKVFQGLHEAIKLINNHVQ] as the molecule, how does the MIC [10] read?
**A.** The MIC was no less than 100 µM.

**Q.** What about the MIC (Escherichia coli K-12) of the same molecule?
**A.** The MIC was no less than 100 µM.

**Q.** What does the source list for `CC(C)C[C@H](NC(=O)CNC(=O)[C@H](CO)NC(=O)CNC(=O)[C@H](Cc1cnc[nH]1)NC(=O)[C@H](CCCN=C(N)N)NC(=O)CN)C(=O)NCC(=O)N[C@@H](Cc1cnc[nH]1)C(=O)N[C@@H](CO)C(=O)N[C@@H](CO)C(=O)N[C@@H](CO)C(=O)N[C@@H](Cc1cnc[nH]1)C(=O)NCC(=O)N[C@@H](CCC(N)=O)C(=O)N[C@@H](Cc1cnc[nH]1)C(=O)NCC(=O)N[C@@H](CO)C(=O)NCC(=O)N[C@@H](CO)C(=O)NCC(=O)N[C@@H](CCCN=C(N)N)C(=O)O` [GRHGSGLGHSSSHGQHGSGSGR]?
**A.** MIC [9]: > 15.2 µM; MIC [13]: > 15.2 µM; MIC [14]: 15.2 µM (≈ 32 µg/mL); MIC [15]: > 15.2 µM; MIC [5]: > 15.2 µM; MIC [16]: 15.2 µM (≈ 32 µg/mL); MIC [17]: > 15.2 µM

**Q.** How did the MIC [9] turn out when `CC[C@H](C)[C@H](NC(=O)[C@@H](NC(=O)[C@H](CC(N)=O)NC(=O)[C@H](CO)NC(=O)[C@H](CC(C)C)NC(=O)[C@@H](NC(=O)CN)C(C)C)C(C)C)C(=O)NCC(=O)N[C@@H](Cc1ccc(O)cc1)C(=O)N[C@@H](CC(C)C)C(=O)N[C@@H](CCCCN)C(=O)N[C@@H](CCCCN)C(=O)N[C@@H](CC(C)C)C(=O)NCC(=O)N[C@H](C(=O)NCC(=O)N[C@@H](C)C(=O)N[C@@H](CC(C)C)C(=O)N[C@@H](CC(N)=O)C(=O)N[C@@H](C)C(=O)N[C@H](C(=O)N[C@@H](CC(C)C)C(=O)N[C@@H](CCCCN)C(=O)N[C@@H](CCC(N)=O)C(N)=O)C(C)C)[C@@H](C)O` [GVLSNVIGYLKKLGTGALNAVLKQ] was run?
**A.** The MIC was 25.3 µM (≈ 62.2 µg/mL).

**Q.** And the MIC [18]?
**A.** Its MIC is 72 µM (≈ 177 µg/mL).

**Q.** And the MIC [19]?
**A.** The MIC was no less than 144 µM.

**Q.** And the MIC [12]?
**A.** The MIC was 25.3 µM (≈ 62.2 µg/mL).

**Q.** What about the MIC [20] of the same molecule?
**A.** Its MIC is 72 µM (≈ 177 µg/mL).

**Q.** What about the MIC [5] of the same molecule?
**A.** The MIC was 144 µM (≈ 353 µg/mL).

**Q.** What does the source list for `CC[C@H](C)[C@H](NC(=O)[C@H](CC(C)C)NC(=O)[C@H](CCCN=C(N)N)NC(=O)[C@H](CCCCN)NC(=O)[C@@H](NC(=O)[C@@H](NC(=O)[C@H](CCCCN)NC(=O)[C@H](CCCCN)NC(=O)[C@H](CCCCN)NC(=O)[C@@H](N)CCCCN)[C@@H](C)CC)[C@@H](C)CC)C(N)=O` [KKKKIIKRLI]?
**A.** MIC [21]: 7.89 µM (≈ 9.99 µg/mL); MIC [22]: 0.789 µM (≈ 0.999 µg/mL); MIC [23]: 3.94 µM (≈ 5 µg/mL); MIC [24]: 0.0789 µM (≈ 0.0999 µg/mL); MIC [25]: 7.89 µM (≈ 9.99 µg/mL); MIC [26]: 7.89 µM (≈ 9.99 µg/mL)

**Q.** With `CC[C@H](C)[C@H](NC(=O)[C@@H](NC(=O)[C@H](CCCCN)NC(=O)[C@H](CCCCN)NC(=O)[C@@H](NC(=O)[C@@H](NC(=O)[C@H](CCCCN)NC(=O)[C@H](CCCCN)NC(=O)[C@H](CCCCN)NC(=O)[C@H](CCCCN)NC(=O)[C@H](CCCCN)NC(=O)[C@@H](N)CCCCN)[C@@H](C)CC)[C@@H](C)CC)[C@@H](C)CC)C(N)=O` [KKKKKKIIKKII] as the molecule, how does the MIC [21] read?
**A.** The MIC was 6.68 µM (≈ 9.99 µg/mL).

**Q.** And the MIC [22]?
**A.** Its MIC is 0.668 µM (≈ 0.999 µg/mL).

**Q.** And the MIC [23]?
**A.** The MIC was 6.68 µM (≈ 9.99 µg/mL).

**Q.** What about the MIC [24] of the same molecule?
**A.** The MIC was 1.67 µM (≈ 2.5 µg/mL).

**Q.** And the MIC [25]?
**A.** Its MIC is 6.68 µM (≈ 9.99 µg/mL).

**Q.** And the MIC [26]?
**A.** The MIC was 6.68 µM (≈ 9.99 µg/mL).
